Assay results taken from US20220354811A1, “METHODS AND COMPOSITIONS FOR MODULATING MACROPHAGES POLARIZATION” (INSERM (INSTITUT NATIONAL DE LA SANTÉ ET DE LA RECHERCHE …, priority 2019, published 2022).

What was measured:
caspase-8 = caspase-8 (Homo sapiens, UniProt Q14790); assay: Recombinant caspase-8 activity in vitro (Ac-IETD-AMC substrate); format: biochemical; parameters: using active recombinant proteins of caspase-8 and caspase-3; purchased Enzo life sciences ALX-201-062; details: recombinant caspase-8, Ac-IETD-AMC
Sequence of caspase-8 (Q14790 217-374 limits assumed): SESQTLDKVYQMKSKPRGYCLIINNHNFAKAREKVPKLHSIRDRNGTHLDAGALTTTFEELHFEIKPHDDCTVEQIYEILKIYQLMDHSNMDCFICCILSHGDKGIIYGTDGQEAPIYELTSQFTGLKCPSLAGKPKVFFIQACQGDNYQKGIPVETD
Sequence of caspase-8 (Q14790 385-479 limits assumed): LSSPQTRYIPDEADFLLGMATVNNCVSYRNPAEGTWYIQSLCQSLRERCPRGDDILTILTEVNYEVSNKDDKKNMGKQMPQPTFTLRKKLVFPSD
Excerpt: FIG. 4. […] (A) Measures of caspase-8 activity (IETD-AMC). IETD-CHO treatment is used as positive control in the in vitro assay. The results are expressed as A.U./min and represent the mean of 3 independent experiments realized in duplicate (B) Measures of caspase-3 activity (DEVD-AMC). DEVD-CHO is used as positive control in the in vitro assay. The results are expressed as A.U./min and represent the mean of 3 independent experiments realized in duplicate. Human CSF-1 was purchased from Miltenyi (130-096-493). […] Mouse caspase-8 was from R&D Systems (AF705). HRP-conjugated rabbit anti-goat was purchased from Dako ([…]) and HRP-conjugated goat anti-rabbit was from Cell Signaling (5127). Active recombinant caspase-8 (ALX-201-062) and -3 (ALX-201-059) were from Enzo life sciences. […] Each assay (in triplicate) was performed with 10 μg of protein prepared from control or stimulated cells. […] Enzyme activities were expressed in arbitrary units (A.U.) per min and per mg of proteins. The same protocol was used with 0.25 units of active recombinant caspase-8 (Enzo, ALX-201-062) or -3 (Enzo, ALX-201-059) in each triplicate.

caspase 3 = target: T1, caspase 3 (Homo sapiens, UniProt P42574); assay: Caspase-3 activity in cellulo in CSF-1-differentiating monocytes (flow cytometry, DEVD); format: cell-based; parameters: endogenous in cells; host or cells: primary human peripheral blood monocytes (CD14-selected, healthy donors); details: identical conditions: Emricasan single dose, Q-VD-OPh 100 μM 2 times
T1 sequence (P42574 29-175 limits assumed): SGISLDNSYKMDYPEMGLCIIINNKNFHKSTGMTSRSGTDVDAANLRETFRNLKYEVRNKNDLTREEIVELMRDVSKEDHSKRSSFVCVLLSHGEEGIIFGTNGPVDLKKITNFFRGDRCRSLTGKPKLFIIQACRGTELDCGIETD
T1 sequence (P42574 176-277 limits assumed): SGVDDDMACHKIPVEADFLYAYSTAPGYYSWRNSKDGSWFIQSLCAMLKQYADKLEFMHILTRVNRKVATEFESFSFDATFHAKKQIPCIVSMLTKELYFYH
Excerpt: FIG. 5. […] Caspases activities from 3 different healthy donors was examined by flow cytometry analysis. The results are expressed as percentage of IETD or DEVD positive cells and represent the mean±SD of 3 independent experiments performed in duplicate. n.s. denotes not statistically significant according to a paired student t test. *P<0.05, **P<0.01, ***P<0.001 according to a paired student t test (versus d2). Asterisks indicate cleavage fragments. Each panel is representative of at least 3 independent experiments.
To analyze the macrophagic differentiation of monocytes, the cells were washed with ice-cold phosphate buffered saline (PBS, Life Technologies, 14190169), incubated at 4° C. for 10 min in PBS/bovine serum albumin (BSA 0.5%, Dutscher, 871002) with anti-CD16, anti-CD71 and anti-CD163 or isotype controls (Miltenyi and BD Biosciences, catalog numbers were 130-113-396, 130-097-628 and 551374). […] Fluorescence was measured with a MACSQuant® Analyzer (Miltenyi, Paris, France). […] Fluorescence was measured with a MACSQuant® Analyzer (Miltenyi, Paris, France). […] Fluorescence, that indicate the internalization of particles, was measured with a MACSQuant® Analyzers (Miltenyi, France). Trypan blue solution was used to quench the fluorescence from particles that were not internalized. […]
After 2 days, caspase-8 activity was assessed by flow cytometry using Ac-IETD-FITC as substrate (data not shown).

Row | SMILES | IC50 (caspase-8) | concentration that abrogated / fully inhibited caspase-8 activity (caspase-8) | effect on caspase-3 activity in cellulo (caspase 3)
1 | C[C@H](NC(=O)C(=O)Nc1ccccc1C(C)(C)C)C(=O)N[C@@H](CC(=O)O)C(=O)COc1c(F)c(F)cc(F)c1F [Emricasan, (S)-3-((S)-2-(2-((2-(tert-Butyl)phenyl)amino)-2-oxoacetamido)propanamido)-4-oxo-5-(2,3,5,6-tetrafluorophenoxy)pentanoic acid] | 12 nM | 0.2 µM | potent inhibition
2 | CC(C)[C@H](NC(=O)c1ccc2ccccc2n1)C(=O)N[C@@H](CC(=O)O)C(=O)COc1c(F)cccc1F [Q-VD-OPh] | ~1000 nM | 50 µM | potent inhibition
